Experimental findings from patent US12247004B2, “2-amino-N-(amino-oxo-aryl-lambda6-sulfanylidene)acetamide compounds and their therapeutic use” (Oxford Drug Design Limited, priority 2019, dated 2025) are described below.

Like-named read-outs stand apart in the source and are kept apart here. Some results are limits rather than exact numbers.

One data set relates to HepG2 ATCC HB-8065 cells. In words: Human cell viability / cytotoxicity (CellTiter-Glo, 24 hours). Type of data set: cell-based. To be noted: HepG2 ATCC HB-8065, 24 hours. In outline:
(§1)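 HepG2 cells (15,000/well, MEM with 1% NEAA and 1% pyruvate) were grown 2 days, then exposed to compounds in duplicate for 24 h at 1.28% DMSO. Viability was read as ATP by CellTiter-Glo luminescence relative to DMSO-only wells. IC50 is in μg/mL.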
(In ATP-based viability assays light output follows the ATP content of the culture.)

The target in data set [1] is Leucyl-tRNA synthetase (LeuRS) (Escherichia coli (strain K12), UniProt P07813). In words: Leucyl-tRNA synthetase enzyme inhibition (AMP-Glo; single point % inhibition at 100 μM and IC50). The format is biochemical. To be noted: E. coli LeuRS; read-out: Enzyme Inhibition - IC50, E. coli LeuRS.
Sequence of Leucyl-tRNA synthetase (LeuRS) (P07813 whole entry, looked up): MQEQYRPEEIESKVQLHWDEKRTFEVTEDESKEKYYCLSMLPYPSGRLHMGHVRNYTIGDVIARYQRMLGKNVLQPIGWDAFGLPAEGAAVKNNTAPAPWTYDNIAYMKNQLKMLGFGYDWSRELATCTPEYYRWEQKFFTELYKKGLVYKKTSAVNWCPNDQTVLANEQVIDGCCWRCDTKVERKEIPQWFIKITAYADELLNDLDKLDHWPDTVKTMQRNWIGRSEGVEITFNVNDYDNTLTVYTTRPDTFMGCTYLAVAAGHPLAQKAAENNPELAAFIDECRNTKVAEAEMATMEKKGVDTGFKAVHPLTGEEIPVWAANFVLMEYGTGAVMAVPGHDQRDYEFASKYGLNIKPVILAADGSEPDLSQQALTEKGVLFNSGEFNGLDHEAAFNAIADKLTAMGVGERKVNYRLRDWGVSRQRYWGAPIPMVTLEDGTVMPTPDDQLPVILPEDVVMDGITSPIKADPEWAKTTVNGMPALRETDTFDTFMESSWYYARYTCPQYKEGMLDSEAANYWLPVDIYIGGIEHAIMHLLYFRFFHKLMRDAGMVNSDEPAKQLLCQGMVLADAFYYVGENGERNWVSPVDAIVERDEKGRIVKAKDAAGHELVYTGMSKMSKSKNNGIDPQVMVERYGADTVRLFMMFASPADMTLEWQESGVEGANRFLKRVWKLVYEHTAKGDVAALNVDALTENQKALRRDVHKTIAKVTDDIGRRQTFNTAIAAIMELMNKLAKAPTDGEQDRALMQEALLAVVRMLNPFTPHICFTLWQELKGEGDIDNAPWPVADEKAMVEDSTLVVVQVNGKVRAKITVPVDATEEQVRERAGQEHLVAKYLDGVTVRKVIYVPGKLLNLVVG
Data set [2] is described as follows: Human cell viability / cytotoxicity (CellTiter-Glo, 24 hours). Type of data set: cell-based. To be noted: human, HepG2 cells (ATCC HB-8065); HepG2 ATCC HB-8065, 24 hours; read-out: Cytotoxicity in HepG2 ATCC HB-8065 Cell Line, IC50. The method, boiled down: as §1
In data set [3] the target is Valyl-tRNA synthetase (ValRS) (Escherichia coli (strain K12), UniProt P07118). Put plainly: Valyl-tRNA synthetase enzyme inhibition (AMP-Glo; single point % inhibition at 100 μM and IC50). Type of data set: biochemical. From the text:
(§2) Study 1—Enzyme Inhibition
The aminoacylation reaction catalyzed by aminoacyl-tRNA synthetases (aaRS) takes place in two steps. In the first step, aaRS activates its cognate amino acid with ATP; and in the second step the activated amino acid is loaded to its corresponding tRNA. This reaction can be summarized as follows: aaRS+aa+ATP=aaRS-aa-AMP+PPi aaRS-aa-AMP+tRNA=aa-tRNA+AMP+aaRS
(§3) wherein: aaRS, aminoacyl-tRNA synthetase; aa, amino acid; aaRS-aa-AMP, enzyme-bound to aminoacyl-adenylate; AMP, adenosine monophosphate; aa-tRNA, aminoacyl-tRNA, PPi, inorganic pyrophosphate.
a. Single Point Percentage Inhibition
(§4) The activity of the pathogenic aaRSs was monitored by measuring AMP production using the commercial kit AMP-Glo (Promega, Madison, USA).
Ligand stock solutions were prepared in 100% DMSO at 10 mM concentration. An assay buffer consisting of 100 mM Tris HCl pH 7.6, 40 mM MgCl, 20 mM KCl and 150 mM NaCl was prepared in dH2O. An enzyme solution containing 42.33 μM ValRS was prepared in assay buffer to provide 30 nM final assay concentration and 75 nM reservoir concentration for a 1:2.5 dilution in the assay. A substrate solution was also prepared in assay buffer with 50 mM L-valine, 10 mM ATP and 100 mg/mL tRNA. A final assay concentration of 500 μM L-valine, 2.5 μM ATP and 0.5 mg/mL tRNA and reservoir concentration of 833.33 μM L-valine, […] and 0.83 mg/mL tRNA was used for a 1:1.66 dilution in assay.
(§5) Enzyme percentage inhibition values were recorded in triplicate at a single point concentration of 100 μM.
Using the same enzymatic assay in a 384-well plate format, ten point concentration response curves were generated for each compound using a top concentration of 100 μM. The known inhibitor, ValAMS was used as a positive control for the ValRS assay. 100% DMSO was used as a negative control. The IC50 was calculated based on non-linear regression analysis.

In data set [4] the target is Isoleucyl-tRNA synthetase (IleRS) (Escherichia coli (strain K12), UniProt P00956). Put plainly: Isoleucyl-tRNA synthetase enzyme inhibition (AMP-Glo; single point % inhibition at 100 μM and IC50). The format is biochemical.
Sequence of Isoleucyl-tRNA synthetase (IleRS) (P00956 whole entry, looked up): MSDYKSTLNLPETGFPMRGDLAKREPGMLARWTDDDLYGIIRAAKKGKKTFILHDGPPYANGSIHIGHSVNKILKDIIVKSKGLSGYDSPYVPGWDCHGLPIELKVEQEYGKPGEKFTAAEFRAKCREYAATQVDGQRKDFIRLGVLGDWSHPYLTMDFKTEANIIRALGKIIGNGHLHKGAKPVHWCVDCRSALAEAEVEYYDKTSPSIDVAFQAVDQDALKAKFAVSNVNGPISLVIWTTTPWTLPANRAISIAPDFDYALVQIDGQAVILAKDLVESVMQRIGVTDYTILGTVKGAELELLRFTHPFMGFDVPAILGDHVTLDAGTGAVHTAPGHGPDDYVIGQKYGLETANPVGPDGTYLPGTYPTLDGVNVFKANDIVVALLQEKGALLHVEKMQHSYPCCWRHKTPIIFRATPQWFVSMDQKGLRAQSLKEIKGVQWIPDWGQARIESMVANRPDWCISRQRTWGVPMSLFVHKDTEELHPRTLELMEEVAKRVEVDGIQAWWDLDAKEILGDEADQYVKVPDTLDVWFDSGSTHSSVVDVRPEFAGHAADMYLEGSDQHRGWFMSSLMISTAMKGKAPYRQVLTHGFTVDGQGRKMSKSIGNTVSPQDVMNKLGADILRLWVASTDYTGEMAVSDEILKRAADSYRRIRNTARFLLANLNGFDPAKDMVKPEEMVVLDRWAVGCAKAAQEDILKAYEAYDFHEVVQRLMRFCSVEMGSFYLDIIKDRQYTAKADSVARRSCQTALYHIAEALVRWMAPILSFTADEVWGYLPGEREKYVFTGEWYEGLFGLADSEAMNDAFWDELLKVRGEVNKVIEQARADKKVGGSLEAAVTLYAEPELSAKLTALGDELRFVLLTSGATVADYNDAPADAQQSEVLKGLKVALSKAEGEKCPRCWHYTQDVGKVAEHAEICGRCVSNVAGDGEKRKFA
Excerpt: as §2
The aminoacylation reaction catalyzed by aminoacyl-tRNA synthetases (aaRS) takes place in two steps. In the first step, aaRS activates its cognate amino acid with ATP; and in the second step the activated amino acid is loaded to its corresponding tRNA. This reaction can be summarized as follows: aaRS+aa+ATP=aaRS-aa-AMP+PPi aaRS-aa-AMP+tRNA=aa-tRNA+AMP+aaRS […]
as §3
Isoleucyl-tRNA Synthetase a. Single Point Percentage Inhibition
as §4
Ligand stock solutions were prepared in 100% DMSO at 10 mM concentration. An assay buffer consisting of 100 mM Tris HCl pH 7.6, 40 mM MgCl, 20 mM KCl and 150 mM NaCl was prepared in dH2O. An enzyme solution containing 51.77 μM IleRS was prepared in assay buffer to provide 30 nM final assay concentration and 75 nM reservoir concentration for a 1:2.5 dilution in the assay. A substrate solution was also prepared in assay buffer with 50 mM L-isoleucine, 10 mM ATP and 100 mg/mL tRNA. A final assay concentration of 500 μM L-isoleucine, 5 μM ATP and 1 mg/mL tRNA and reservoir concentration of 833.33 μM L-isoleucine, 8.33 μM ATP and 1.67 mg/mL tRNA was used for a 1:1.66 dilution in assay.
as §5
Using the same enzymatic assay in a 384-well plate format, ten point concentration response curves were generated for each compound using a top concentration of 100 μM. The known inhibitor, IleAMS was used as a positive control for the IleRS assay. 100% DMSO was used as a negative control. The IC50 was calculated based on non-linear regression analysis.

Sequence of Valyl-tRNA synthetase (ValRS) (P07118 whole entry): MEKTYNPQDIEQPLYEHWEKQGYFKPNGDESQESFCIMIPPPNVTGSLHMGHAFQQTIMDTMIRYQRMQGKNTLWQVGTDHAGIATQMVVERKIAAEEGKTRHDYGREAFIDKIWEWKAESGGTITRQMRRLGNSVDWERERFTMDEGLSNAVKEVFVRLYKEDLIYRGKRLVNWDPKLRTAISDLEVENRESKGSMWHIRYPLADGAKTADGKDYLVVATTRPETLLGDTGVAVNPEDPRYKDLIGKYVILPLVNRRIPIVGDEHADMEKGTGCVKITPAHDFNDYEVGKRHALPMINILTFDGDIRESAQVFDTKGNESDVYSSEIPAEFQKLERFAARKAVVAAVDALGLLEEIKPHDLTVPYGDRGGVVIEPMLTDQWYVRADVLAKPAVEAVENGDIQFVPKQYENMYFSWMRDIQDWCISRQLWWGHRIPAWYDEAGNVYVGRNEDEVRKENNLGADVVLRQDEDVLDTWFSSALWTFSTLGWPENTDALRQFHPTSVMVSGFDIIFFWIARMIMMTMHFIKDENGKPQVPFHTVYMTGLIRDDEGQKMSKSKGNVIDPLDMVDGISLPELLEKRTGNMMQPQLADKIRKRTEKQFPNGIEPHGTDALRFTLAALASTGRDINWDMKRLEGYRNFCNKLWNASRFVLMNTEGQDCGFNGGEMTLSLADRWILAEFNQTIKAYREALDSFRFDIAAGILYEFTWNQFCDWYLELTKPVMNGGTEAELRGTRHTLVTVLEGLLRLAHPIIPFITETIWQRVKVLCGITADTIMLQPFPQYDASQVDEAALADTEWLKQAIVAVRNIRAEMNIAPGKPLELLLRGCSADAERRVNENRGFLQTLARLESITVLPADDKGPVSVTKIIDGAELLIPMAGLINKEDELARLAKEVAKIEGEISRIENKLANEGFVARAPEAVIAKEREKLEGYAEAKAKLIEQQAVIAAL

In the case of `CC(C)C[C@H](N)C(=O)N=[S@@](N)(=O)c1cccs1.Cl` [ANASIA-007-2, (S)-2-amino-N—((R)-amino(oxo) (thiophen-2-yl)-λ6-sulfanylidene)-4-methyl pentanamide hydrochloride], in the data set on HepG2 ATCC HB-8065 cells, the “Cytotoxicity in HepG2 ATCC HB-8065 Cell Line, IC50” value is more than 64.0 µg/mL. The IC50 in data set [1] was found to be 4.9 µM.

In the case of `CC(C)[C@H](N)C(=O)N=S(N)(=O)c1cccc2ccccc12` (stereo partly shown) [ANASIA-025], the IC50 at 24 h in data set [2] is more than 64 µg/mL. Also, the IC50 is 21.9 µM in data set [3] and more than 100 µM in data set [4] (E. coli IleRS, read-out: Enzyme Inhibition - IC50, E. coli IleRS).

As to `CC(C)[C@H](N)C(=O)N=S(N)(=O)c1cc2sccc2s1` (stereo partly shown) [ANASIA-118], the IC50 was determined as 38.6 µM in data set [3] and 52.9 µM in data set [4].

By IC50 is commonly meant the point on the concentration scale where inhibition reaches its midpoint.
